Experimental findings from PubChem BioAssay (NCI) are described below.

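A five-concentration, 48-hour dose response in 96-well plates underlies each endpoint, interpolated linearly between surrounding concentrations. TGI: concentration producing complete growth inhibition.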

Some test systems named below: BT-549 breast; HCT-15 colon; HOP-92 NSCLC; MDA-MB-231 breast; NCI-H522 lung; OVCAR-8 ovarian; PC-3 prostate; SK-MEL-28 melanoma; SK-OV-3 ovarian; UO-31 renal.
Holding throughout (assay): inhibition of tumour cell growth, NCI panel, 48 h

As for `CCOC(=O)/C=C(/C(=O)OCC)n1cc(C)c(=O)n(Cc2cnnn2CCCCOC(C)=O)c1=O`, the TGI is 24.3 µM in the test with BT-549 breast; greater than 100 µM in the test with HCT-15 colon; 20.2 µM with HOP-92 NSCLC; greater than 100 µM in the test on MDA-MB-231 breast; 14.2 µM in the test on NCI-H522 lung; 55.4 µM in the test on OVCAR-8 ovarian. The TGI was greater than 100 µM with PC-3 prostate, greater than 100 µM in the test with SK-MEL-28 melanoma, greater than 100 µM in the test with SK-OV-3 ovarian and 36.6 µM in the test with UO-31 renal.

As to `CO[P@]1(=O)O[C@@H](c2ccccc2)[C@H](O)[C@]1(O)c1ccccc1`, the TGI with BT-549 breast, in the test on HCT-15 colon, in the test with HOP-92 NSCLC, with MDA-MB-231 breast, with NCI-H522 lung and in the test with OVCAR-8 ovarian was greater than 100 µM in each case. Besides, the TGI with PC-3 prostate, with SK-MEL-28 melanoma, with SK-OV-3 ovarian and with UO-31 renal was greater than 100 µM in each case.

For the molecule `CSc1n[n+](C)cc(N)c1N`, the TGI with BT-549 breast is greater than 100 µM; in the test with HCT-15 colon, greater than 100 µM; in the test on HOP-92 NSCLC, 98 µM; in the test on MDA-MB-231 breast, greater than 100 µM; in the test on NCI-H522 lung, greater than 100 µM; in the test on OVCAR-8 ovarian it was greater than 100 µM. Further, the TGI in the test with PC-3 prostate, in the test with SK-MEL-28 melanoma, with SK-OV-3 ovarian and in the test on UO-31 renal was greater than 100 µM each time.

Consider `O=C(O)C(Cc1cccs1)C(=O)O`, for which the TGI in the test on BT-549 breast, in the test with HCT-15 colon, in the test with HOP-92 NSCLC, in the test on MDA-MB-231 breast, with NCI-H522 lung and in the test on OVCAR-8 ovarian was greater than 100 µM throughout. For the same molecule, the TGI with PC-3 prostate, in the test with SK-MEL-28 melanoma, in the test with SK-OV-3 ovarian and in the test on UO-31 renal was greater than 100 µM each time.

With `Nc1cc(CO)cc(Nc2c3ccccc3nc3occc23)c1`, the TGI in the test with BT-549 breast was 81.6 µM; in the test on HCT-15 colon, greater than 100 µM; in the test with HOP-92 NSCLC, greater than 100 µM; in the test on MDA-MB-231 breast it was greater than 100 µM; with NCI-H522 lung, 39.9 µM; with OVCAR-8 ovarian, greater than 100 µM. Besides, the TGI in the test with PC-3 prostate was greater than 100 µM; in the test with SK-MEL-28 melanoma, 72.4 µM; in the test with SK-OV-3 ovarian it was greater than 100 µM; in the test on UO-31 renal, greater than 100 µM.

For `CCCCCc1c(CCCC)c(=O)[nH]c2cc(CNCC(OC)OC)ccc12`, the TGI came to 28 µM in the test on BT-549 breast; 23.8 µM in the test on HCT-15 colon; 16.5 µM in the test with HOP-92 NSCLC; 29.3 µM in the test on MDA-MB-231 breast; 34.6 µM with NCI-H522 lung; 32 µM with OVCAR-8 ovarian. Moreover, the TGI was found to be 25.5 µM with PC-3 prostate, 12.2 µM in the test with SK-MEL-28 melanoma, 32.3 µM with SK-OV-3 ovarian and 26.4 µM in the test with UO-31 renal.

For `c1ccc(N=NNNc2ccc(-c3nc4ccccc4[nH]3)cc2)cc1`, the TGI is 76.8 µM in the test with BT-549 breast; greater than 100 µM in the test on HCT-15 colon; greater than 100 µM with HOP-92 NSCLC; greater than 100 µM with MDA-MB-231 breast; greater than 100 µM with NCI-H522 lung; greater than 100 µM in the test with OVCAR-8 ovarian. Also, the TGI with PC-3 prostate was 82.3 µM; with SK-MEL-28 melanoma, greater than 100 µM; in the test on SK-OV-3 ovarian, greater than 100 µM; in the test on UO-31 renal it was greater than 100 µM.

For the molecule `O=C(CSC1=NCCN1)c1ccccc1`, the TGI with BT-549 breast, with HCT-15 colon, in the test on HOP-92 NSCLC, in the test with MDA-MB-231 breast, with NCI-H522 lung and in the test on OVCAR-8 ovarian was greater than 100 µM in each case. Besides, the TGI with PC-3 prostate, with SK-MEL-28 melanoma, with SK-OV-3 ovarian and in the test on UO-31 renal was greater than 100 µM throughout.

With `COc1ccc(-c2cn3c(n2)sc2cc(C)ccc23)cc1`, the TGI with BT-549 breast was 87.4 µM; in the test with HCT-15 colon, greater than 100 µM; in the test on HOP-92 NSCLC, 20.8 µM; with MDA-MB-231 breast, 42.4 µM; with NCI-H522 lung, 51.4 µM; in the test on OVCAR-8 ovarian, 47.2 µM. Also, the TGI was 50.9 µM with PC-3 prostate, greater than 100 µM with SK-MEL-28 melanoma, 98.9 µM in the test with SK-OV-3 ovarian and greater than 100 µM in the test on UO-31 renal.

For the molecule `CC(=O)Oc1ccc2c(c1)CC[C@@H]1C2[C@@H](O[N+](=O)[O-])C[C@@]2(C)C1CC[C@@H]2O` (stereo partly specified), the TGI in the test with BT-549 breast is greater than 100 µM; with HCT-15 colon, greater than 100 µM; in the test with HOP-92 NSCLC, greater than 100 µM; in the test on MDA-MB-231 breast, greater than 100 µM; in the test with NCI-H522 lung, greater than 86.7 µM; in the test on OVCAR-8 ovarian, greater than 86.7 µM. For the same molecule, the TGI with PC-3 prostate, with SK-MEL-28 melanoma, in the test with SK-OV-3 ovarian and in the test with UO-31 renal was greater than 100 µM throughout.

In the case of `CC1CC[C@]2(C(=O)O)CCC3(C)C(=C2[C@H]1C)C=CC1[C@@]2(C)CC[C@H](O)C(C)(C)C2CC[C@]13C` (stereo partly specified), the TGI is greater than 100 µM with BT-549 breast; greater than 100 µM in the test with HCT-15 colon; 43.9 µM in the test with HOP-92 NSCLC; 70 µM in the test on MDA-MB-231 breast; greater than 100 µM in the test with NCI-H522 lung; greater than 100 µM in the test on OVCAR-8 ovarian. In addition, the TGI was 80.1 µM in the test with PC-3 prostate, 98.4 µM with SK-MEL-28 melanoma and 45.5 µM with SK-OV-3 ovarian.

Regarding `Clc1ccc(OCc2nnc(CCCCCCCCc3nnc(COc4ccc(Cl)cc4Cl)o3)o2)c(Cl)c1`, the TGI in the test with BT-549 breast, in the test with HCT-15 colon, in the test with HOP-92 NSCLC, in the test with MDA-MB-231 breast, with NCI-H522 lung and in the test on PC-3 prostate was greater than 100 µM each time. The TGI with SK-MEL-28 melanoma, in the test on SK-OV-3 ovarian and in the test with UO-31 renal was greater than 100 µM each time.

`CCCCCC(C)C[C@H]1CO[C@H](c2ccc[nH]2)N[C@H]1C(=O)OC` (stereo partly specified): the TGI with BT-549 breast, with HCT-15 colon, in the test with HOP-92 NSCLC, in the test with MDA-MB-231 breast, in the test on NCI-H522 lung and in the test on OVCAR-8 ovarian was greater than 100 µM throughout. The TGI in the test with PC-3 prostate, with SK-MEL-28 melanoma and in the test with SK-OV-3 ovarian was greater than 100 µM in each case.

As for `CCN(CC)CCNc1ccc(N=Nc2ccc(S(N)(=O)=O)cc2)c2ccccc12`, the TGI was 34 µM in the test with BT-549 breast; greater than 100 µM in the test on HCT-15 colon; 35.9 µM in the test with HOP-92 NSCLC; 27.8 µM with MDA-MB-231 breast; 32 µM in the test on NCI-H522 lung; 21.3 µM in the test on OVCAR-8 ovarian. In addition, the TGI was determined as 29.7 µM in the test on PC-3 prostate, 28.1 µM in the test with SK-MEL-28 melanoma and 20.8 µM in the test with UO-31 renal.
